Assay results reported in ChEMBL document CHEMBL1201862, “PubChem BioAssay data set” (2004).
Structures can show the parent of a compound that is named as a salt.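 Briefly, cells in 96-well plates were exposed to five compound concentrations for 48 h, and endpoints were estimated by linear interpolation. GI50 = concentration required for 50% inhibition of growth.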 Active and inactive are the calls of the source. Cut-off read from the data, not from the text of the source: active = GI50 up to about 1.1 µM and inactive = higher.

How the values were obtained:
Test in all cases: NCI tumour cell line growth inhibition, 48 h
ACHN = system: ACHN
CAKI-1 = system: CAKI-1
DU-145 = system: DU-145
EKVX = system: EKVX
HCT-116 = system: HCT-116
HL-60 = system: HL-60
KM12 = system: KM12
MDA-MB-231 = system: MDA-MB-231
Malme-3M = system: Malme-3M
NCI-H460 = system: NCI-H460
NCI-H522 = system: NCI-H522
NCI/ADR-RES = system: NCI/ADR-RES
OVCAR-4 = system: OVCAR-4
OVCAR-5 = system: OVCAR-5
PC-3 = system: PC-3
RXF 393 = system: RXF 393
SK-MEL-28 = system: SK-MEL-28
SK-MEL-5 = system: SK-MEL-5
SW-620 = system: SW-620
UACC-257 = system: UACC-257

COc1ccc(C(=O)Cn2c(C(C)=O)nc3ccccc32)cc1
GI50 (ACHN): 8.59 µM (inactive)
GI50 (CAKI-1): 7.21 µM (inactive)
GI50 (DU-145): 30.7 µM (inactive)
GI50 (EKVX): 76.9 µM (inactive)
GI50 (HCT-116): 6.15 µM (inactive)
GI50 (HL-60): 3.41 µM (inactive)
GI50 (KM12): 7.1 µM (inactive)
GI50 (MDA-MB-231): 4.82 µM (inactive)
GI50 (Malme-3M): 41 µM (inactive)
GI50 (NCI-H460): 4.21 µM (inactive)
GI50 (NCI-H522): 3.86 µM (inactive)
GI50 (NCI/ADR-RES): 3.55 µM (inactive)
GI50 (OVCAR-4): 14.2 µM (inactive)
GI50 (OVCAR-5): 44.4 µM (inactive)
GI50 (PC-3): 6.98 µM (inactive)
GI50 (RXF 393): > 56.4 µM (inactive)
GI50 (SK-MEL-28): > 46.7 µM (inactive)
GI50 (SK-MEL-5): 4.15 µM (inactive)
GI50 (SW-620): 5.56 µM (inactive)
GI50 (UACC-257): 30.4 µM (inactive)

O=C1c2cccc3cccc(c23)C(=O)N1CCCNCCCCNCCCNCCCN1C(=O)c2cccc3cccc(c23)C1=O [BISNAPHTHALIMIDOPROPYL SPERMIDINE TRIHYDROBROMIDE]
GI50 (ACHN): 1.22 µM (inactive)
GI50 (CAKI-1): 4.01 µM (inactive)
GI50 (DU-145): 0.371 µM (active)
GI50 (EKVX): 1.18 µM (inactive)
GI50 (HCT-116): 0.399 µM (active)
GI50 (HL-60): 0.172 µM (active)
GI50 (KM12): 0.556 µM (active)
GI50 (MDA-MB-231): 1.06 µM (active)
GI50 (Malme-3M): 0.513 µM (active)
GI50 (NCI-H460): 0.323 µM (active)
GI50 (NCI-H522): 0.0859 µM (active)
GI50 (NCI/ADR-RES): 19.9 µM (inactive)
GI50 (OVCAR-4): 0.431 µM (active)
GI50 (OVCAR-5): 0.585 µM (active)
GI50 (PC-3): 0.535 µM (active)
GI50 (RXF 393): 0.473 µM (active)
GI50 (SK-MEL-28): 1.39 µM (inactive)
GI50 (SK-MEL-5): 2.02 µM (inactive)
GI50 (SW-620): 0.555 µM (active)
GI50 (UACC-257): 1.56 µM (inactive)
